Test results taken from patent publication US8188102B2, “Amide derivative for inhibiting the growth of cancer cells” (Hanmi Holdings Co., Ltd., priority 2007, dated 2012).

What was measured:
[1] = test system: SK-Br3 breast cancer cell line; assay: Cancer cell growth inhibition, SK-Br3 (SRB); conditions: Homo sapiens, SK-BR-3, 72 h, read-out: ID50 (nM) SK-Br3
[2] = test system: A431 skin cancer cell line; assay: Cancer cell growth inhibition, A431 (SRB); conditions: Homo sapiens, A-431, 72 h, read-out: ID50 (nM) A431

Row | Structure (SMILES) | IC50 [1] [nM] | IC50 [2] [nM]
1 | C=CC(=O)N1CCC(Oc2cc3c(Nc4cccc(S)c4)ncnc3cc2OC)CC1 [Example 76, 1-(4-(4-(3-mercaptophenylamino)-7-methoxyquinazolin-6-yloxy)piperidin-1-yl)pro-2-pen-1-one] | 100 | 300
2 | C=CC(=O)N1CCC(Oc2cc3c(Nc4ccc(C(C)C)cc4)ncnc3cc2OC)CC1 [Example 40, 1-(4-(4-(4-isopropylphenylamino)-7-methoxyquinazolin-6-yloxy)piperidin-1-yl)pro-2-pen-1-one] | 37 | 23
3 | CNC(=O)/C=C/C(=O)N1CCC(Oc2cc3c(Nc4ccc(F)c(Cl)c4F)ncnc3cc2OC)CC1 [Example 82, (E)-4-(4-(4-(3-chloro-2,4-difluorophenylamino)-7-methoxyquinazolin-6-yloxy)piperidin-1-yl)-N-methyl-4-oxobut-2-enamide] | 134 | 48
4 | COc1cc2ncnc(Nc3ccc(Cl)c(Cl)c3F)c2cc1OC1CCN(C(=O)/C=C/Cl)CC1 [Example 90, (E)-3-chloro-1-(4-(4-(3,4-dichloro-2-fluorophenylamino)-7-methoxyquinazolin-6-yloxy)piperidin-1-yl)prop-2-en-1-one] | 13 | 39
5 | C=CC(=O)N1CCC(Oc2cc3c(Nc4cccc(C#N)c4)ncnc3cc2OC)CC1 [Example 56, 3-(6-(1-acryloylpiperidin-4-yloxy)-7-methoxyquinazolin-4-ylamino)benzonitrile] | 0.7 | 3.7
6 | C=C(CO)C(=O)N1CCC(Oc2cc3c(Nc4ccc(Cl)c(Cl)c4F)ncnc3cc2OC)CC1 [Example 114, 1-(4-(4-(3,4-dichloro-2-fluorophenylamino)-7-methoxyquinazolin-6-yloxy)piperidin-1-yl)-2-(hydroxymethyl)prop-2-en-1-one] | 274 | 44
7 | COc1cc2ncnc(Nc3ccc(Cl)c(Cl)c3F)c2cc1OC1CCN(C(=O)/C=C/CN(C)C)CC1 [Example 99, (E)-1-(4-(4-(3,4-dichloro-2-fluorophenylamino)-7-methoxyquinazolin-6-yloxy)piperidin-1-yl)-4-(dimethylamino)but-2-en-1-one] | 39 | 165
8 | C=C(CN1CCOCC1)C(=O)N1CCC(Oc2cc3c(Nc4ccc(F)c(Cl)c4F)ncnc3cc2OC)CC1 [Example 110, 1-(4-(4-(3-chloro-2,4-difluorophenylamino)-7-methoxyquinazolin-6-yloxy)piperidin-1-yl)-2-(morpholinomethyl)prop-2-en-1-one] | 30 | 10
9 | C=CC(=O)NCCOc1cc2c(Nc3ccc(F)c(Cl)c3F)ncnc2cc1OC [Example 21, N-(2-(4-(3-chloro-2,4-difluorophenylamino)-7-methoxyquinazolin-6-yloxy)ethyl)acrylamide] | 210 | 699
10 | C=CC(=O)N1CCC(Oc2cc3c(Nc4ccc(C)c(C)c4)ncnc3cc2OC)CC1 [Example 47, 1-(4-(4-(3,4-dimethylphenylamino)-7-methoxyquinazolin-6-yloxy)piperidin-1-yl)pro-2-pen-1-one] | 10 | 19
11 | COc1cc2ncnc(Nc3ccc(Cl)c(Cl)c3F)c2cc1OC1CCN(C(=O)/C=C\Cl)CC1 [Example 89, (Z)-3-chloro-1-(4-(4-(3,4-dichloro-2-fluorophenylamino)-7-methoxyquinazolin-6-yloxy)piperidin-1-yl)prop-2-en-1-one] | 85 | 14
12 | C=CC(=O)N1CC[C@H](Oc2cc3c(Nc4ccc(F)c(Cl)c4F)ncnc3cc2OC)C[C@H]1C(=O)OC [Example 119, (2S,4S)-methyl 1-acryloyl-4-(4-(3-chloro-2,4-difluorophenylamino)-7-methoxyquinazolin-6-yloxy)piperidin-2-carboxylate] | 6 | 5
13 | C=CC(=O)N1CCC(Oc2cc3c(Nc4ccccc4Cl)ncnc3cc2OC)CC1 [Example 69, 1-(4-(4-(2-chlorophenylamino)-7-methoxyquinazolin-6-yloxy)piperidin-1-yl)pro-2-pen-1-one] | 1.7 | 65
14 | C=CC(=O)N1CCC(Oc2cc3c(Nc4ccc(Cl)c(O)c4)ncnc3cc2OC)CC1 [Example 51, 1-(4-(4-(4-chloro-3-hydroxyphenylamino)-7-methoxyquinazolin-6-yloxy)piperidin-1-yl)pro-2-pen-1-one] | 19 | 105
15 | C=CC(=O)N1CCCC(Oc2cc3c(Nc4ccc(F)c(Cl)c4F)ncnc3cc2OC)C1 (centres unmarked) [Example 18, 1-(3-(4-(3-chloro-2,4-difluorophenylamino)-7-methoxyquinazolin-6-yloxy)piperidin-1-yl)pro-2-pen-1-one] | 19 | 6
16 | C=CC(=O)N1CC[C@H](Oc2cc3c(Nc4ccc(F)c(Cl)c4F)ncnc3cc2OC)C[C@H]1C(=O)NO [Example 125, (2S,4S)-1-acryloyl-4-(4-(3-chloro-2,4-difluorophenylamino)-7-methoxyquinazolin-6-yloxy)-N-hydroxypiperidin-2-carboxamide] | 1 | 10

Row | Structure (SMILES) | IC50 [1] [nM] | IC50 [2] [nM]
17 | C=CC(=O)N1CCC(Oc2cc3c(NCc4cccc(Cl)c4)ncnc3cc2OC)CC1 [Example 72, 1-(4-(4-(3-chlorobenzylamino)-7-methoxyquinazolin-6-yloxy)piperidin-1-yl)pro-2-pen-1-one] | 20 | 61
18 | CC#CC(=O)N1CCC(Oc2cc3c(Nc4ccc(F)c(Cl)c4F)ncnc3cc2OC)CC1 [Example 80, 1-(4-(4-(3-chloro-2,4-difluorophenylamino)-7-methoxyquinazolin-6-yloxy)piperidin-1-yl)but-2-yn-1-one] | 268 | 190
19 | COc1cc2ncnc(Nc3ccc(F)c(Cl)c3F)c2cc1O[C@H]1CCN(C(=O)/C=C/CN2CCCC2)C1 [Example 95, (E)-1-((3S)-3-(4-(3-chloro-2,4-difluorophenylamino)-7-methoxyquinazolin-6-yloxy)pyrrolidin-1-yl)-4-(pyrrolidin-1-yl)but-2-en-1-one] | 23 | 8
20 | C=CC(=O)N1CCC(Oc2cc3c(Nc4ccc5c(c4)CCC5)ncnc3cc2OC)CC1 [Example 49, 1-(4-(4-(2,3-dihydro-1H-inden-5-ylamino)-7-methoxyquinazolin-6-yloxy)piperidin-1-yl)pro-2-pen-1-one] | 45 | 29
21 | C=C(C)C(=O)N1CC(Oc2cc3c(Nc4ccc(F)c(Cl)c4F)ncnc3cc2OC)C1 [Example 29, 1-(3-(4-(3-chloro-2,4-difluorophenylamino)-7-methoxyquinazolin-6-yloxy)azetidin-1-yl)-2-methylpro-2-pen-1-one] | 19 | 29
22 | COc1cc2ncnc(Nc3ccc(F)c(Cl)c3F)c2cc1OC1CN(C(=O)/C=C\CN(C)C)C1 [Example 112, (Z)-1-(3-(4-(3-chloro-2,4-difluorophenylamino)-7-methoxyquinazolin-6-yloxy)azetidin-1-yl)-4-(dimethylamino)but-2-en-1-one] | 0.8 | 15
23 | C=CC(=O)N1CCC(Oc2cc3c(Nc4ccc(O)c(F)c4)ncnc3cc2OC)CC1 [Example 79, 1-(4-(4-(3-fluoro-4-hydroxyphenylamino)-7-methoxyquinazolin-6-yloxy)piperidin-1-yl)prop-2-en-1-one] | 37 | 129
24 | C=CC(=O)N1CCC(Oc2cc3c(Nc4ccc(F)c(C)c4)ncnc3cc2OC)CC1 [Example 46, 1-(4-(4-(4-fluoro-3-methylphenylamino)-7-methoxyquinazolin-6-yloxy)piperidin-1-yl)pro-2-pen-1-one] | 2 | 8
25 | COc1cc2ncnc(Nc3cccc(Cl)c3F)c2cc1OC1CN(C(=O)/C=C/CN(C)C)C1 [Example 102, (E)-1-(3-(4-(3-chloro-2-fluorophenylamino)-7-methoxyquinazolin-6-yloxy)azetidin-1-yl)-4-(dimethylamino)but-2-en-1-one] | 8 | 9
26 | COc1cc2ncnc(Nc3ccc(F)c(Cl)c3F)c2cc1OC1CCN(C(=O)/C=C\C(=O)O)CC1 [Example 85, (Z)-4-(4-(4-(3-chloro-2,4-difluorophenylamino)-7-methoxyquinazolin-6-yloxy)piperidin-1-yl)-4-oxobut-2-enoic acid] | 395 | 41
27 | COc1cc2ncnc(Nc3ccc(F)c(Cl)c3F)c2cc1OC1CCN(C(=O)C=C(C)C)CC1 [Example 81, 1-(4-(4-(3-chloro-2,4-difluorophenylamino)-7-methoxyquinazolin-6-yloxy)piperidin-1-yl)-3-methylbut-2-en-1-one] | 141 | 38
28 | C=CC(=O)N1CC[C@H](Oc2cc3c(Nc4cccc(Cl)c4F)ncnc3cc2OC)C1 [Example 6, 1-((3S)-3-(4-(3-chloro-2-fluorophenylamino)-7-methoxyquinazolin-6-yloxy)pyrrolidin-1-yl)pro-2-pen-1-one] | 1670 | 531
29 | COc1cc2ncnc(Nc3ccc(F)c(Cl)c3F)c2cc1O[C@H]1CCN(C(=O)/C=C/CN2CCOCC2)C1 [Example 94, (E)-1-((3S)-3-(4-(3-chloro-2,4-difluorophenylamino)-7-methoxyquinazolin-6-yloxy)pyrrolidin-1-yl)-4-morpholinobut-2-en-1-one] | 123 | 85
30 | C=CC(=O)N1CCC(Oc2cc3c(Nc4cccc(SC)c4)ncnc3cc2OC)CC1 [Example 68, 1-(4-(7-methoxy-4-(3-(methylthio)phenylamino)quinazolin-6-yloxy)piperidin-1-yl)pro-2-pen-1-one] | 10 | 305
31 | C=CC(=O)N1CCC(Oc2cc3c(Nc4ccc(Br)c(F)c4)ncnc3cc2OC)CC1 [Example 62, 1-(4-(4-(4-bromo-3-fluorophenylamino)-7-methoxyquinazolin-6-yloxy)piperidin-1-yl)pro-2-pen-1-one] | 6 | 7
